Experimental data: US20220265619A1, “COMBINATION TREATMENT OF LIVER DISEASES USING FXR AGONISTS” (Novartis AG, priority 2019, published 2022)
Entries after “also recorded” stand apart in the source; their conditions may differ. Blank lines part the entries; values can stand above or below the compound they belong to.

Experiments:
human hepatocytes = test: LDL uptake by in vitro human hepatocytes treated with FXR agonists; format: cell-based
Text: To mitigate the increase in peripheric LDL, we hypothesize that treating the subjects in the evening (from about 6 pm to about […], e.g. from about 8 pm to about 11 pm, preferably around 9 pm) would be reduce the impact of the drug on LDL. […] In addition, during night time, the hepatocytes rely less on cholesterol coming from the food intake (LDL and others) since the body is then fasting but more on the intrahepatic production of cholesterol via HMGCOa reductase; the activity of this enzyme is the highest during the night. Indeed, in human, whilst the Cyp7A1 activity peak at 1 and 9 pm, intracellular cholesterol levels in hepatocytes are the highest during the night (between midnight and 4 AM).

[1] = Licogliflozin 2 week study in healthy subjects and patients with T2DM; format: in vivo, human
Protocol: (§1) i.e., (2S,3R,4R,5S,6R)-2-(3-((2,3-dihydrobenzo[b][1,4]dioxin-6-yl)methyl)-4-ethylphenyl)-6-(hydroxymethyl)tetrahydro-2H-pyran-3,4,5-triol. […] Licogliflozin at 150 mg daily dose results in a significant weight loss in obese patients (˜6%) after 12 week treatment.

[2] = Licogliflozin 150 mg daily, 12 week treatment in obese patients / normoglycemic and dysglycemic subjects; format: in vivo, human
Protocol: as §1

[3] = Phase 2 dose range finding study of licogliflozin in obese patients (CLIK066B2201); format: in vivo, human; conditions: obese patients (placebo 19.2%)
Protocol: A dose of 30 mg QD is expected to achieve approximately 70% of maximum observed efficacy (using weight loss as a downstream marker for efficacy; CLIK066B2201). Licogliflozin is currently being tested as 30 mg and 150 mg QD monotherapy in NASH (CLIK066X2204). […] To minimize the risk of GI adverse effects of the SGLT1 inhibition in the gut such as diarrhea, licogliflozin will be administered in the evening.

[4] = Placebo-controlled, randomized Phase 2a study of licogliflozin in NASH patients, interim analysis (NCT03205150, CLIK066X2204); format: in vivo, human; conditions: for patients achieving at least 5% absolute reduction in liver fat: 12 weeks (placebo 18.8%); for proportion of patients with at least a 30% relative reduction in liver fat content: 12 weeks (placebo 25%); for patients reporting diarrhea (adverse event): 12 weeks (placebo 38.9%)
Protocol: METHOD: Patients with histologically confirmed NASH (F1-F3) or phenotypic NASH (BMI≥27 kg/m^2 in non-Asians or 23 kg/m^2 in Asians, ALT≥50 (males) or 35 (females) and type 2 diabetes (T2DM)) received daily oral licogliflozin at 150 mg, 30 mg or placebo in a 2:2:1 ratio for 12 weeks (NCT03205150). The primary endpoint is the effect on ALT level after 12 weeks of treatment. Secondary endpoints include improvement in body weight, liver fat content and AST, amongst others. The study size is 110 of which 77 have completed (placebo (n=18); licogliflozin 30 mg (n=25) and licogliflozin 150 mg (n=34)) and are included in the interim analysis.

[5] = Dose finding study of licogliflozin in Japanese patients with obesity disease; format: in vivo, human; conditions: for placebo-subtracted percentage change in body weight from baseline at Week 12: Japanese patients with obesity disease
Protocol: This study was a randomized, double-blind, placebo controlled, dose finding study to evaluate the effect of licogliflozin (2.5, 10, 25 and 50 mg qd) in 126 Japanese patients with obesity disease. The primary objective was to examine the dose-response relationship of licogliflozin treatment in body weight reduction relative to placebo at 12 weeks. The secondary objectives included assessment of responder rates, change in parameters related to complications, visceral and subcutaneous fat area, and safety through 12 weeks of treatment.

[6] = Drug-drug interaction study of tropifexor and licogliflozin in healthy but overweight to obese subjects; format: in vivo, human
Protocol: Sixteen subjects with a BMI of 25 to 35 kg/m2 were enrolled. […] Standard safety assessments were performed, with adverse event monitoring. Steady state PK parameters from Period 1 or 2 (single agent PK) were compared with that from Period 3 (combination PK) to assess the effect of potential drug interaction.

[7] = NASH patients; cited from earlier work
[8] = FLIGHT-FXR (NCT02855164) Part C interim analysis, tropifexor in fibrotic NASH; format: in vivo, human; conditions: for ALT, LS mean absolute change (SE) from baseline to Week 12: placebo −8.9 (4.19); for GGT, LS mean absolute change (SE) from baseline to Week 12: placebo −2.5 (3.55); for Body weight, LS mean absolute change (SE) from baseline to Week 12: placebo −1.14 (0.36)
[9] = Tropifexor in NASH patients, Parts A and B of study CLJN452A2202
[10] = licogliflozin 50 mg in the presence of tropifexor 140 μg vs alone
[11] = 200 μg once daily, n = 46, P < 0.001
[12] = tropifexor 140 μg in the presence of licogliflozin 50 mg vs alone
[13] = 10 to 90 μg daily for 12 weeks, NASH patients
[14] = all doses (10, 30, 60 and 90 μg), 12 weeks

SMILES: O=C(O)c1ccnc(N2CC(O)(c3ccc(OCc4c(-c5c(Cl)cccc5Cl)noc4C4CC4)cc3Cl)C2)c1 [cilofexor]
LDL uptake by hepatocytes (human hepatocytes; FIG. 5): reduce the LDL uptake by hepatocytes in a dose dependent manner; also recorded: decreased LDL uptake

pharmacokinetic profile [1]: favorable pharmacokinetic profile
diarrhea events that were mild ([4]; all diarrhea events of the study): 97.4%
increase of mean peak plasma concentration [6, 10]: 8%
increase of total exposure [6, 10]: 12%
SMILES: CCc1ccc([C@@H]2O[C@H](CO)[C@@H](O)[C@H](O)[C@H]2O)cc1Cc1ccc2c(c1)OCCO2 [licogliflozin, (2S,3R,4R,5S,6R)-2-(3-((2,3-dihydrobenzo[b][1,4]dioxin-6-yl)methyl)-4-ethylphenyl)-6-(hydroxymethyl)tetrahydro-2H-pyran-3,4,5-triol]
safety and tolerability [1]: safe and tolerated
placebo-adjusted weight loss ([1]; over 2 weeks): up to 3%
weight loss ([2]; 150 mg daily dose, obese patients, after 12 week treatment): ~6%
safety and tolerability ([2]; 150 mg once daily, twelve weeks, normoglycemic and dysglycemic subjects): generally safe and well tolerated with diarrhea observed as a dose-limiting toxicity
incidence of diarrhea ([3]; 2.5 mg QD for 24 weeks): 18.4%
incidence of diarrhea ([3]; 10 mg QD for 24 weeks): 15.8%
incidence of diarrhea ([3]; 50 mg QD for 24 weeks): 55.3%
incidence of diarrhea ([3]; 150 mg QD for 24 weeks): 68.8%
placebo adjusted reduction from baseline levels of ALT ([4]; 30 mg daily oral, 12 weeks, p=NS): 19%
patients achieving at least 5% absolute reduction in liver fat ([4]; 30 mg): 43.5%
proportion of patients with at least a 30% relative reduction in liver fat content ([4]; 30 mg): 39.5%
patients reporting diarrhea (adverse event) ([4]; 30 mg): 40%
placebo adjusted reduction in HbA1c (absolute change) ([4]; 30 mg, 12 weeks, p=0.001): 0.81%
reduction in GGT ([4]; 30 mg, 12 weeks, p=0.014): 26%
reduction in AST ([4]; 30 mg, 12 weeks, p=0.043): 23%
absolute reduction in liver fat ([4]; 30 mg, 12 weeks, p=NS): 2.71%
relative reduction in liver fat content ([4]; 30 mg, 12 weeks, p=NS): 10%
ALT and liver fat, interim analysis ([4]; 150 mg QD monotherapy in NASH): promising reduction of ALT and liver fat
gastrointestinal events (mainly diarrhea), interim analysis ([4]; 150 mg QD monotherapy in NASH): significant incidence of gastrointestinal events
placebo adjusted reduction from baseline levels of ALT ([4]; 150 mg daily oral, 12 weeks, p=0.036): 27%
patients achieving at least 5% absolute reduction in liver fat ([4]; 150 mg): 63.3%
proportion of patients with at least a 30% relative reduction in liver fat content ([4]; 150 mg): 66.7%
patients reporting diarrhea (adverse event) ([4]; 150 mg): 76.5%
placebo adjusted reduction in HbA1c (absolute change) ([4]; 150 mg, 12 weeks, p=0.0001): 0.96%
reduction in GGT ([4]; 150 mg, 12 weeks, p=0.001): 32%
reduction in AST ([4]; 150 mg, 12 weeks, p=0.004): 30%
absolute reduction in liver fat ([4]; 150 mg, 12 weeks, p=0.01): 4.45%
relative reduction in liver fat content ([4]; 150 mg, 12 weeks, p=0.01): 22%
safety and tolerability ([4]; 12 weeks of treatment, NASH patients): safe and tolerable
placebo adjusted reduction in body weight ([4]; both doses (150 mg and 30 mg), 12 weeks, p=0.0001): ~4%
placebo-subtracted percentage change in body weight from baseline at Week 12 ([5]; 2.5 mg qd): −1.99%
placebo-subtracted percentage change in body weight from baseline at Week 12 ([5]; 10 mg qd): −3.00%
placebo-subtracted percentage change in body weight from baseline at Week 12 ([5]; 25 mg qd): −3.54%
placebo-subtracted percentage change in body weight from baseline at Week 12 ([5]; 50 mg qd): −3.91%
safety ([5]; 2.5, 10, 25 and 50 mg qd over 12 weeks): safe with no ketoacidosis and no new safety signals
body weight, dose dependence ([5]; 2.5, 10, 25 and 50 mg qd, 12 weeks): dose-dependent reduction in body weight
patients achieving reduction of ≥3% in body weight ([5]; 10, 25 and 50 mg qd dose groups (placebo 7.1%; p≤0.002 for all)): ≥ 50%

LDL uptake by hepatocytes (human hepatocytes; FIG. 5, listed as OCA): decreased LDL uptake
SMILES: CC[C@H]1[C@@H](O)[C@@H]2[C@H](CC[C@]3(C)[C@@H]([C@H](C)CCC(=O)O)CC[C@@H]23)[C@@]2(C)CC[C@@H](O)C[C@@H]12 [obeticholic acid, 6α-ethyl-chenodeoxycholic acid]
LDL uptake by hepatocytes (human hepatocytes; FIG. 5): reduce the LDL uptake by hepatocytes in a dose dependent manner
safety on long term administration [7]: associated with pruritus, as well as with lipid abnormalities

SMILES: O=C(O)c1cc(F)c2nc(N3C4CC[C@H]3CC(OCc3c(-c5ccccc5OC(F)(F)F)noc3C3CC3)C4)sc2c1 (stereo partly drawn) [tropifexor, 2-[(1R,3r,5S)-3-({5-cyclopropyl-3-[2-(trifluoromethoxy)phenyl]-1,2-oxazol-4-yl}methoxy)-8-azabicyclo[3.2.1]octan-8-yl]-4-fluoro-1,3-benzothiazole-6-carboxylic acid]
low density lipoprotein-cholesterol (LDL-C) ([8]; 140 μg and 200 μg): dose-related increase
frequency of serious adverse events ([8]; 140 μg and 200 μg vs placebo): low and comparable across groups
ALT, LS mean absolute change (SE) from baseline to Week 12 ([8]; 140 μg once daily, n = 41, P = 0.058): −20.1 (4.57) U/L
GGT, LS mean absolute change (SE) from baseline to Week 12 ([8]; 140 μg once daily, n = 44, P < 0.001): −39.2 (3.70) U/L
Body weight, LS mean absolute change (SE) from baseline to Week 12 ([8]; 140 μg once daily, n = 46, P = 0.010): −2.46 (0.38) kg
treatment discontinuation rate due to pruritus ([8]; 140 μg, n=1 (placebo 0%)): 2%
pre-specified endpoints at week 12 ([8]; 200 μg once daily): met
ALT, LS mean absolute change (SE) from baseline to Week 12 ([8]; 200 μg once daily, n = 39, P = 0.013): −23.6 (4.48) U/L
Body weight, LS mean absolute change (SE) from baseline to Week 12 [8, 11]: −3.20 (0.37) kg
GGT, LS mean absolute change (SE) from baseline to Week 12 [8, 11]: −40.9 (3.62) U/L
treatment discontinuation rate due to pruritus ([8]; 200 μg, n=3 (placebo 0%)): 6%
patients with pruritus whose events had mild (Grade 1) severity ([8]; both Tropifexor groups (140 μg, 200 μg)): > 60%
ALT, HFF, and body weight after 12 weeks ([8]; higher doses (140 μg, 200 μg)): robust and dose-dependent decreases
safety and tolerability after 12 weeks ([8]; higher doses (140 μg, 200 μg)): good safety and tolerability
decrease of mean peak plasma concentration (Cmax,ss) [6, 12]: 15%
decrease of total exposure (AUCtau,ss) [6, 12]: 12%
biologic activity (GGT) [9, 13]: clear dose response
target engagement (FGF19) [9, 13]: clear dose response
ALT compared to placebo [9, 14]: reduced across all tropifexor doses
hepatic fat fraction compared to placebo [9, 14]: reduced across all tropifexor doses
tolerability ([9]; up to 90 μg daily): generally well tolerated up to 90 μg daily without safety signals
